From US10227357B2, “Compounds and methods for kinase modulation, and indications therefor” (Plexxikon Inc., priority 2012, dated 2019)

How the values were obtained:
c-kit mutant D816V = molecular target: T1, c-kit mutant D816V (Homo sapiens, UniProt P10721, D816V/DEL694-753); experiment: c-Kit mutant D816V biochemical assay, AlphaScreen; conditions: c-kit D816V biochemical inhibitory activity; read-out: Biochemical activity (IC50 μM) Kit D816V
T1 construct: residues 551-934, kinase insertion domain residues 694-753 deleted; 6x-histidine (N); made in house; host or cells: E. coli Arctic Express (DE3) RIL (Stratagene)
T1 sequence (P10721 with tags, fused parts or gaps DEL694-753/D816V): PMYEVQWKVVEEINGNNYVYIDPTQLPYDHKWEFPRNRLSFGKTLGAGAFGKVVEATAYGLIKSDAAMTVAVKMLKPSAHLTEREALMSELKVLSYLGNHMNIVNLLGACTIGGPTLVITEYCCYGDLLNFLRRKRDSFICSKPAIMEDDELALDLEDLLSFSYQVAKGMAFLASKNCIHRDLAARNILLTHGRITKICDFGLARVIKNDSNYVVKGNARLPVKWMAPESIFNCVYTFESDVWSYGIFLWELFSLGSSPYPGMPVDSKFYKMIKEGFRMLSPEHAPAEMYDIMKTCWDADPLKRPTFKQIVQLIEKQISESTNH
Method in brief: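 Eight-point, threefold compound series incubated 30 min at room temperature with E. coli-produced D816V kinase, 10 μM ATP, Mg2+/Mn2+ HEPES buffer pH 7.2 and 5% DMSO. After EDTA stop, streptavidin and anti-phosphotyrosine (PY20) AlphaScreen beads gave the read-out, and IC50 was fitted from the concentration–signal curve.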

c-kit kinase = molecular target: T2, c-kit kinase (Homo sapiens, UniProt P10721); experiment: c-Kit biochemical assay, AlphaScreen, 10 μM ATP; conditions: c-kit biochemical inhibitory activity; read-out: Biochemical activity (IC50 μM) Kit
T2 construct: The c-kit (or kinase domain thereof) is an active kinase in AlphaScreen; poly-Histidine tag (in-house protein only) (cleaved yes); host or cells: E. coli BL21(DE3)RIL, co-expressed with PTP1B
T2 sequence (P10721 26-976): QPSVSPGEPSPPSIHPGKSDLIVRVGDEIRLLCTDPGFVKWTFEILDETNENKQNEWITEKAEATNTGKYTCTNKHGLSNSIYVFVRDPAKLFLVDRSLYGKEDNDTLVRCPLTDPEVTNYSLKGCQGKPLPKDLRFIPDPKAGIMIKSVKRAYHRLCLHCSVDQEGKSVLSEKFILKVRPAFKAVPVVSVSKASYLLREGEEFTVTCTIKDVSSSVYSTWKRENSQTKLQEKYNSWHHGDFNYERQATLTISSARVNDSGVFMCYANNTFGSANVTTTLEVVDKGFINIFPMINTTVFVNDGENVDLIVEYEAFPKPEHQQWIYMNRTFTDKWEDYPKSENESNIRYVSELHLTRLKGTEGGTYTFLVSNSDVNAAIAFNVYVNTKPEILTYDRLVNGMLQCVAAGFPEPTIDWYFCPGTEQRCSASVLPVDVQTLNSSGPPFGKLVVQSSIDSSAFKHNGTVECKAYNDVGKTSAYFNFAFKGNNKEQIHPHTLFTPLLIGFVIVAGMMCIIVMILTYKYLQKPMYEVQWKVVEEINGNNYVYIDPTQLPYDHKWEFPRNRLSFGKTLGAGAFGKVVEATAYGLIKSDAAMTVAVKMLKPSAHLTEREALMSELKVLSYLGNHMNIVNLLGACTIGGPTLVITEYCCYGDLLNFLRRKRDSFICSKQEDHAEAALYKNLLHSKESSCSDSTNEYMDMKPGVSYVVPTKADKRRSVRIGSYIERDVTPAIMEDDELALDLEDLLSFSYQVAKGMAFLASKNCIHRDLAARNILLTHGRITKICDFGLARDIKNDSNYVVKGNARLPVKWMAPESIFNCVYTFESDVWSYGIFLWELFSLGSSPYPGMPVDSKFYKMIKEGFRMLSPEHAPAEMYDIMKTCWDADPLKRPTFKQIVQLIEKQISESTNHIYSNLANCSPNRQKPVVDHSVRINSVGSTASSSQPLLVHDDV
Method in brief: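 His-tagged c-Kit expressed in E. coli with co-expressed PTP1B (dephosphorylated), tag removed; 0.1 ng per reaction with biotinylated-peptide substrate in 50 mM HEPES pH 7.2, 5 mM MgCl2, 5 mM MnCl2, 5% DMSO, 10 μM ATP, 1 h at room temperature. Phosphorylation detected by AlphaScreen (streptavidin donor, PY20 acceptor beads); IC50 from 8-point 1:3 dilution series.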

Structure (SMILES)	IC50 (c-kit mutant D816V) [µM]	IC50 (c-kit kinase) [µM]
C[C@H](NC(=O)N1CCN(c2ncnc3[nH]c(-c4ccc(F)cc4)cc23)C[C@H]1C)c1cccc(OC(F)F)c1 [P-0014, (2R)-N-[(1S)-1-[3-(difluoromethoxy)phenyl]ethyl]-4-[6-(4-fluorophenyl)-7H-pyrrolo[2,3-d]pyrimidin-4-yl]-2-methyl-piperazine-1-carboxamide]	0.0001 to 1	1 to 10
[2H]C([2H])([2H])Oc1cccc([C@H](C)NC(=O)N2CCN(c3ncnc4[nH]c(-c5ccc(F)cc5)cc34)CC2)c1 [P-0015, 4-[6-(4-fluorophenyl)-7H-pyrrolo[2,3-d]pyrimidin-4-yl]-N-[(1S)-1-[3-(trideuteriomethoxy)phenyl]ethyl]piperazine-1-carboxamide]	0.0001 to 1	1 to 10
C[C@H](NC(=O)N1CCN(c2ncnc3[nH]c(-c4ccc(F)cc4)cc23)CC1)c1cccc(N(C)C)c1 [P-0016, N-[(1S)-1-[3-(dimethylamino)phenyl]ethyl]-4-[6-(4-fluorophenyl)-7H-pyrrolo[2,3-d]pyrimidin-4-yl]piperazine-1-carboxamide]	0.0001 to 1	1 to 10
COc1ccc([C@H](C)NC(=O)N2CCN(c3ncnc4[nH]c(-c5ccc(F)cc5)cc34)C[C@H]2C)cc1 [P-0018, (2R)-4-[6-(4-fluorophenyl)-7H-pyrrolo[2,3-d]pyrimidin-4-yl]-N-[(1S)-1-(4-methoxyphenyl)ethyl]-2-methyl-piperazine-1-carboxamide]	0.0001 to 1	1 to 10
COc1ccc([C@@H](C)NC(=O)N2CCN(c3ncnc4[nH]c(-c5ccc(Cl)cc5)cc34)C[C@H]2C)cc1 [P-0019, (2R)-4-[6-(4-chlorophenyl)-7H-pyrrolo[2,3-d]pyrimidin-4-yl]-N-[(1R)-1-(4-methoxyphenyl)ethyl]-2-methyl-piperazine-1-carboxamide]	1 to 10	10 to 200
C[C@H](NC(=O)N1CCN(c2ncnc3[nH]c(-c4ccc(Cl)cc4)cc23)C[C@H]1C)c1ccc(Cl)cc1 [P-0020, (2R)-N-[(1S)-1-(4-chlorophenyl)ethyl]-4-[6-(4-chlorophenyl)-7H-pyrrolo[2,3-d]pyrimidin-4-yl]-2-methyl-piperazine-1-carboxamide]	1 to 10	1 to 10
C[C@H](NC(=O)N1CCN(c2ncnc3[nH]c(-c4ccc(Cl)cc4)cc23)C[C@H]1C)c1ccc(F)cc1 [P-0023, (2R)-4-[6-(4-chlorophenyl)-7H-pyrrolo[2,3-d]pyrimidin-4-yl]-N-[(1S)-1-(4-fluorophenyl)ethyl]-2-methyl-piperazine-1-carboxamide]	0.0001 to 1	10 to 200
COc1cccc([C@H](C)NC(=O)N2CCN(c3ncnc4[nH]c(-c5ccc(Cl)cc5)cc34)C[C@H]2C)c1 [P-0024, (2R)-4-[6-(4-chlorophenyl)-7H-pyrrolo[2,3-d]pyrimidin-4-yl]-N-[(1S)-1-(3-methoxyphenyl)ethyl]-2-methyl-piperazine-1-carboxamide]	0.0001 to 1	1 to 10
C[C@H](NC(=O)N1CCN(c2ncnc3[nH]c(-c4ccc(F)cc4)cc23)CC1)c1cccc(Cl)c1 [P-0027, N-[(1S)-1-(3-chlorophenyl)ethyl]-4-[6-(4-fluorophenyl)-7H-pyrrolo[2,3-d]pyrimidin-4-yl]piperazine-1-carboxamide]	0.0001 to 1	10 to 200
COc1cccc([C@H](C)NC(=O)N2CCN(c3ncnc4[nH]c(-c5ccc(F)cc5)cc34)C[C@H]2C)c1 [P-0028, (R)-4-[6-(4-Fluoro-phenyl)-7H-pyrrolo[2,3-d]pyrimidin-4-yl]-2-methyl-piperazine-1-carboxylic acid [(S)-1-(3-methoxy-phenyl)-ethyl]-amide]	0.0001 to 1	0.0001 to 1
C[C@H](NC(=O)N1CCN(c2ncnc3[nH]c(-c4ccc(F)cc4)cc23)C[C@H]1C)c1ccc(Cl)cc1 [P-0029, (2R)-N-[(1S)-1-(4-chlorophenyl)ethyl]-4-[6-(4-fluorophenyl)-7H-pyrrolo[2,3-d]pyrimidin-4-yl]-2-methyl-piperazine-1-carboxamide]	0.0001 to 1	10 to 200
C[C@H](NC(=O)N1CCN(c2ncnc3[nH]c(-c4ccc(F)cc4)cc23)C[C@H]1C)c1ccc(F)cc1 [P-0030, (2R)-N-[(1S)-1-(4-fluorophenyl)ethyl]-4-[6-(4-fluorophenyl)-7H-pyrrolo[2,3-d]pyrimidin-4-yl]-2-methyl-piperazine-1-carboxamide]	0.0001 to 1	10 to 200
COc1ccc([C@@H](C)NC(=O)N2CCN(c3ncnc4[nH]c(-c5ccc(F)cc5)cc34)C[C@H]2C)cc1 [P-0031, (2R)-4-[6-(4-fluorophenyl)-7H-pyrrolo[2,3-d]pyrimidin-4-yl]-N-[(1R)-1-(4-methoxyphenyl)ethyl]-2-methyl-piperazine-1-carboxamide]	1 to 10	10 to 200
COc1cccc([C@@H](C)NC(=O)N2CCN(c3ncnc4[nH]c(-c5ccc(F)cc5)cc34)C[C@H]2C)c1 [P-0032, (2R)-4-[6-(4-fluorophenyl)-7H-pyrrolo[2,3-d]pyrimidin-4-yl]-N-[(1R)-1-(3-methoxyphenyl)ethyl]-2-methyl-piperazine-1-carboxamide]	1 to 10	10 to 200
C[C@@H]1CN(c2ncnc3[nH]c(-c4ccc(F)cc4)cc23)CCN1C(=O)N[C@H](C)c1ccc(Cl)cc1 [P-0035, (2R)-N-[(1R)-1-(4-chlorophenyl)ethyl]-4-[6-(4-fluorophenyl)-7H-pyrrolo[2,3-d]pyrimidin-4-yl]-2-methyl-piperazine-1-carboxamide]	1 to 10	10 to 200
C[C@H]1CN(c2ncnc3[nH]c(-c4ccncc4)cc23)CCN1C(=O)NCc1ccc(Cl)cc1 [P-0044, (2S)-N-[(4-chlorophenyl)methyl]-2-methyl-4-[6-(4-pyridyl)-7H-pyrrolo[2,3-d]pyrimidin-4-yl]piperazine-1-carboxamide]	0.0001 to 1	0.0001 to 1
C[C@H]1CN(c2ncnc3[nH]c(-c4ccncc4)cc23)CCN1C(=O)Nc1ccc(Cl)cc1 [P-0045, (2S)-N-(4-chlorophenyl)-2-methyl-4-[6-(4-pyridyl)-7H-pyrrolo[2,3-d]pyrimidin-4-yl]piperazine-1-carboxamide]	1 to 10	1 to 10
COc1cccc([C@H](C)NC(=O)N2CCN(c3ncnc4[nH]c(C#CC5CC5)cc34)CC2)c1 [P-0047, 4-[6-(2-cyclopropylethynyl)-7H-pyrrolo[2,3-d]pyrimidin-4-yl]-N-[(1S)-1-(3-methoxyphenyl)ethyl]piperazine-1-carboxamide]	0.0001 to 1	1 to 10
CN(C)c1ccc(NC(=O)N2CCN(c3ncnc4[nH]c(C#CC5CC5)cc34)CC2)cc1 [P-0052, 4-[6-(2-cyclopropylethynyl)-7H-pyrrolo[2,3-d]pyrimidin-4-yl]-N-(4-dimethylaminophenyl)piperazine-1-carboxamide]	10 to 200	1 to 10
O=C(Nc1ccc(OC(F)(F)F)cc1)N1CCN(c2ncnc3[nH]c(C#CC4CC4)cc23)CC1 [P-0053, 4-[6-(2-cyclopropylethynyl)-7H-pyrrolo[2,3-d]pyrimidin-4-yl]-N-[4-(trifluoromethoxy)phenyl]piperazine-1-carboxamide]	10 to 200	1 to 10
C[C@@H]1CN(c2ncnc3[nH]c(-c4ccncc4)cc23)CCN1C(=O)NCc1cccc(Cl)c1 [P-0056, (2R)-N-[(3-chlorophenyl)methyl]-2-methyl-4-[6-(4-pyridyl)-7H-pyrrolo[2,3-d]pyrimidin-4-yl]piperazine-1-carboxamide]	0.0001 to 1	1 to 10
COc1ccc(NC(=O)N2CCN(c3ncnc4[nH]c(-c5ccncc5)cc34)C[C@H]2C)cn1 [P-0057, (2R)-N-(6-methoxy-3-pyridyl)-2-methyl-4-[6-(4-pyridyl)-7H-pyrrolo[2,3-d]pyrimidin-4-yl]piperazine-1-carboxamide]	0.0001 to 1	1 to 10
C[C@H](NC(=O)N1CCN(c2ncnc3[nH]c(-c4ccncc4)cc23)C[C@H]1C)c1ccc(F)cc1 [P-0058, (2R)-N-[(1S)-1-(4-fluorophenyl)ethyl]-2-methyl-4-[6-(4-pyridyl)-7H-pyrrolo[2,3-d]pyrimidin-4-yl]piperazine-1-carboxamide]	0.0001 to 1	1 to 10
C[C@H](NC(=O)N1CCN(c2ncnc3[nH]c(-c4ccncc4)cc23)C[C@H]1C)c1ccc(Cl)cc1 [P-0059, (2R)-N-[(1S)-1-(4-chlorophenyl)ethyl]-2-methyl-4-[6-(4-pyridyl)-7H-pyrrolo[2,3-d]pyrimidin-4-yl]piperazine-1-carboxamide]	0.0001 to 1	0.0001 to 1
COc1cccc([C@H](C)NC(=O)N2CCN(c3ncnc4[nH]c(-c5ccncc5)cc34)C[C@H]2C)c1 [P-0060, (2R)-N-[(1S)-1-(3-methoxyphenyl)ethyl]-2-methyl-4-[6-(4-pyridyl)-7H-pyrrolo[2,3-d]pyrimidin-4-yl]piperazine-1-carboxamide]	0.0001 to 1	0.0001 to 1
C[C@@H]1CN(c2ncnc3[nH]c(-c4ccncc4)cc23)CCN1C(=O)NCc1ccc(F)cc1 [P-0061, (2R)-N-[(4-fluorophenyl)methyl]-2-methyl-4-[6-(4-pyridyl)-7H-pyrrolo[2,3-d]pyrimidin-4-yl]piperazine-1-carboxamide]	0.0001 to 1	1 to 10
